Test results from BigSolDB 2.1.

CC1(C)O[C@@H]2[C@@H](CO[C@@]3(COS(N)(=O)=O)OC(C)(C)O[C@@H]23)O1
solubility (mole fraction) (in 2-butoxyethanol, 278.15 K): 0.0541
solubility (mole fraction) (in 2-butoxyethanol, 283.15 K): 0.0602
solubility (mole fraction) (in 2-butoxyethanol, 288.15 K): 0.0676
solubility (mole fraction) (in 2-butoxyethanol, 293.15 K): 0.0756
solubility (mole fraction) (in 2-butoxyethanol, 298.15 K): 0.0849
solubility (mole fraction) (in 2-butoxyethanol, 303.15 K): 0.0986
solubility (mole fraction) (in 2-butoxyethanol, 308.15 K): 0.111
solubility (mole fraction) (in 2-butoxyethanol, 313.15 K): 0.124
solubility (mole fraction) (in 2-butoxyethanol, 318.15 K): 0.14
solubility (mole fraction) (in 2-butoxyethanol, 323.15 K): 0.157
solubility (mole fraction) (in 2-ethoxyethanol, 278.15 K): 0.11
solubility (mole fraction) (in 2-ethoxyethanol, 283.15 K): 0.118
solubility (mole fraction) (in 2-ethoxyethanol, 288.15 K): 0.126
solubility (mole fraction) (in 2-ethoxyethanol, 293.15 K): 0.137
solubility (mole fraction) (in 2-ethoxyethanol, 298.15 K): 0.149
solubility (mole fraction) (in 2-ethoxyethanol, 303.15 K): 0.162
solubility (mole fraction) (in 2-ethoxyethanol, 308.15 K): 0.173
solubility (mole fraction) (in 2-ethoxyethanol, 313.15 K): 0.191
solubility (mole fraction) (in 2-ethoxyethanol, 318.15 K): 0.209
solubility (mole fraction) (in 2-ethoxyethanol, 323.15 K): 0.229
solubility (mole fraction) (in 2-methoxyethanol, 278.15 K): 0.149
solubility (mole fraction) (in 2-methoxyethanol, 283.15 K): 0.156
solubility (mole fraction) (in 2-methoxyethanol, 288.15 K): 0.165
solubility (mole fraction) (in 2-methoxyethanol, 293.15 K): 0.176
solubility (mole fraction) (in 2-methoxyethanol, 298.15 K): 0.187
solubility (mole fraction) (in 2-methoxyethanol, 303.15 K): 0.198
solubility (mole fraction) (in 2-methoxyethanol, 308.15 K): 0.212
solubility (mole fraction) (in 2-methoxyethanol, 313.15 K): 0.228
solubility (mole fraction) (in 2-methoxyethanol, 318.15 K): 0.245
solubility (mole fraction) (in 2-methoxyethanol, 323.15 K): 0.263
solubility (mole fraction) (in 2-propoxyethanol, 278.15 K): 0.0726
solubility (mole fraction) (in 2-propoxyethanol, 283.15 K): 0.0803
solubility (mole fraction) (in 2-propoxyethanol, 288.15 K): 0.089
solubility (mole fraction) (in 2-propoxyethanol, 293.15 K): 0.0981
solubility (mole fraction) (in 2-propoxyethanol, 298.15 K): 0.109
solubility (mole fraction) (in 2-propoxyethanol, 303.15 K): 0.121
solubility (mole fraction) (in 2-propoxyethanol, 308.15 K): 0.134
solubility (mole fraction) (in 2-propoxyethanol, 313.15 K): 0.15
solubility (mole fraction) (in 2-propoxyethanol, 318.15 K): 0.167
solubility (mole fraction) (in 2-propoxyethanol, 323.15 K): 0.187
solubility (mole fraction) (in ethanol, 278.15 K): 0.0169
solubility (mole fraction) (in ethanol, 283.15 K): 0.0202
solubility (mole fraction) (in ethanol, 288.15 K): 0.0252
solubility (mole fraction) (in ethanol, 293.15 K): 0.0315
solubility (mole fraction) (in ethanol, 298.15 K): 0.039
solubility (mole fraction) (in ethanol, 303.15 K): 0.0478
solubility (mole fraction) (in ethanol, 308.15 K): 0.0628
solubility (mole fraction) (in ethanol, 313.15 K): 0.079
solubility (mole fraction) (in ethanol, 318.15 K): 0.102
solubility (mole fraction) (in ethanol, 323.15 K): 0.129
solubility (mole fraction) (in isobutanol, 278.15 K): 0.00375
solubility (mole fraction) (in isobutanol, 283.15 K): 0.004
solubility (mole fraction) (in isobutanol, 288.15 K): 0.00525
solubility (mole fraction) (in isobutanol, 293.15 K): 0.00684
solubility (mole fraction) (in isobutanol, 298.15 K): 0.00911
solubility (mole fraction) (in isobutanol, 303.15 K): 0.0121
solubility (mole fraction) (in isobutanol, 308.15 K): 0.0166
solubility (mole fraction) (in isobutanol, 313.15 K): 0.0225
solubility (mole fraction) (in isobutanol, 318.15 K): 0.0314
solubility (mole fraction) (in isobutanol, 323.15 K): 0.0441
solubility (mole fraction) (in isopentanol, 278.15 K): 0.00308
solubility (mole fraction) (in isopentanol, 283.15 K): 0.00401
solubility (mole fraction) (in isopentanol, 288.15 K): 0.0052
solubility (mole fraction) (in isopentanol, 293.15 K): 0.00684
solubility (mole fraction) (in isopentanol, 298.15 K): 0.00905
solubility (mole fraction) (in isopentanol, 303.15 K): 0.0119
solubility (mole fraction) (in isopentanol, 308.15 K): 0.0147
solubility (mole fraction) (in isopentanol, 313.15 K): 0.0197
solubility (mole fraction) (in isopentanol, 318.15 K): 0.0261
solubility (mole fraction) (in isopentanol, 323.15 K): 0.0353
solubility (mole fraction) (in isopropanol, 278.15 K): 0.00638
solubility (mole fraction) (in isopropanol, 283.15 K): 0.00814
solubility (mole fraction) (in isopropanol, 288.15 K): 0.0106
solubility (mole fraction) (in isopropanol, 293.15 K): 0.014
solubility (mole fraction) (in isopropanol, 298.15 K): 0.0186
solubility (mole fraction) (in isopropanol, 303.15 K): 0.0247
solubility (mole fraction) (in isopropanol, 308.15 K): 0.0299
solubility (mole fraction) (in isopropanol, 313.15 K): 0.0408
solubility (mole fraction) (in isopropanol, 318.15 K): 0.0594
solubility (mole fraction) (in isopropanol, 323.15 K): 0.0818
solubility (mole fraction) (in methanol, 278.15 K): 0.0401
solubility (mole fraction) (in methanol, 283.15 K): 0.0476
solubility (mole fraction) (in methanol, 288.15 K): 0.0569
solubility (mole fraction) (in methanol, 293.15 K): 0.0683
solubility (mole fraction) (in methanol, 298.15 K): 0.081
solubility (mole fraction) (in methanol, 303.15 K): 0.0951
solubility (mole fraction) (in methanol, 308.15 K): 0.112
solubility (mole fraction) (in methanol, 313.15 K): 0.131
solubility (mole fraction) (in methanol, 318.15 K): 0.148
solubility (mole fraction) (in methanol, 323.15 K): 0.174
solubility (mole fraction) (in n-butanol, 278.15 K): 0.00495
solubility (mole fraction) (in n-butanol, 283.15 K): 0.00629
solubility (mole fraction) (in n-butanol, 288.15 K): 0.00804
solubility (mole fraction) (in n-butanol, 293.15 K): 0.0103
solubility (mole fraction) (in n-butanol, 298.15 K): 0.0131
solubility (mole fraction) (in n-butanol, 303.15 K): 0.0172
solubility (mole fraction) (in n-butanol, 308.15 K): 0.0231
solubility (mole fraction) (in n-butanol, 313.15 K): 0.0298
solubility (mole fraction) (in n-butanol, 318.15 K): 0.0397
solubility (mole fraction) (in n-butanol, 323.15 K): 0.0538
solubility (mole fraction) (in n-heptanol, 278.15 K): 0.00256
solubility (mole fraction) (in n-heptanol, 283.15 K): 0.00327
solubility (mole fraction) (in n-heptanol, 288.15 K): 0.00425
solubility (mole fraction) (in n-heptanol, 293.15 K): 0.0054
solubility (mole fraction) (in n-heptanol, 298.15 K): 0.00686
solubility (mole fraction) (in n-heptanol, 303.15 K): 0.00877
solubility (mole fraction) (in n-heptanol, 308.15 K): 0.0116
solubility (mole fraction) (in n-heptanol, 313.15 K): 0.015
solubility (mole fraction) (in n-heptanol, 318.15 K): 0.0196
solubility (mole fraction) (in n-heptanol, 323.15 K): 0.0256
solubility (mole fraction) (in n-hexanol, 278.15 K): 0.0029
solubility (mole fraction) (in n-hexanol, 283.15 K): 0.00363
solubility (mole fraction) (in n-hexanol, 288.15 K): 0.00496
solubility (mole fraction) (in n-hexanol, 293.15 K): 0.00628
solubility (mole fraction) (in n-hexanol, 298.15 K): 0.00807
solubility (mole fraction) (in n-hexanol, 303.15 K): 0.0104
solubility (mole fraction) (in n-hexanol, 308.15 K): 0.0138
solubility (mole fraction) (in n-hexanol, 313.15 K): 0.018
solubility (mole fraction) (in n-hexanol, 318.15 K): 0.0236
solubility (mole fraction) (in n-hexanol, 323.15 K): 0.0312
solubility (mole fraction) (in n-pentanol, 278.15 K): 0.00373
solubility (mole fraction) (in n-pentanol, 283.15 K): 0.00472
solubility (mole fraction) (in n-pentanol, 288.15 K): 0.00601
solubility (mole fraction) (in n-pentanol, 293.15 K): 0.00747
solubility (mole fraction) (in n-pentanol, 298.15 K): 0.00969
solubility (mole fraction) (in n-pentanol, 303.15 K): 0.0126
solubility (mole fraction) (in n-pentanol, 308.15 K): 0.0157
solubility (mole fraction) (in n-pentanol, 313.15 K): 0.0207
solubility (mole fraction) (in n-pentanol, 318.15 K): 0.0272
solubility (mole fraction) (in n-pentanol, 323.15 K): 0.0367
solubility (mole fraction) (in n-propanol, 278.15 K): 0.00715
solubility (mole fraction) (in n-propanol, 283.15 K): 0.00923
solubility (mole fraction) (in n-propanol, 288.15 K): 0.0116
solubility (mole fraction) (in n-propanol, 293.15 K): 0.0148
solubility (mole fraction) (in n-propanol, 298.15 K): 0.0187
solubility (mole fraction) (in n-propanol, 303.15 K): 0.0252
solubility (mole fraction) (in n-propanol, 308.15 K): 0.0333
solubility (mole fraction) (in n-propanol, 313.15 K): 0.0439
solubility (mole fraction) (in n-propanol, 318.15 K): 0.0591
solubility (mole fraction) (in n-propanol, 323.15 K): 0.0794
